Results published in patent US11098072B2, “Alkenyl and beta-substituted phosphonates as antimicrobial agents” (The George Washington University, priority 2017, dated 2021).
≈ marks a conversion by molar mass, not a printed value. Read-outs that look alike come from different tables or passages of the source.

How the values were obtained:
[1] = tested on: P. falciparum; assay: Growth inhibition against P. falciparum; assay type: cell-based; details: for IC50: Plasmodium falciparum
[2] = tested on: Mtb; assay: Mtb growth inhibition (MIC99) in 7H9 and GAST-Fe media; assay type: cell-based, M. tuberculosis; details: Mycobacterium tuberculosis
Description: Selected analogs were tested for the growth inhibition against P. falciparum and Mtb in both rich media (7H9) and minimal media (GAST-Fe) following reported procedures.

[3] = molecular target: T1, P. falciparum DXR (Plasmodium falciparum, UniProt Q8IKG4); assay: Inhibition of P. falciparum DXR enzyme; assay type: biochemical; details: for IC50: Table 2, phosphonic acid salts, read-out: Pf DXR IC50; for Pf DXR (% Residue): percent remaining enzyme activity at 100 μM compound
T1 sequence (Q8IKG4 73-488): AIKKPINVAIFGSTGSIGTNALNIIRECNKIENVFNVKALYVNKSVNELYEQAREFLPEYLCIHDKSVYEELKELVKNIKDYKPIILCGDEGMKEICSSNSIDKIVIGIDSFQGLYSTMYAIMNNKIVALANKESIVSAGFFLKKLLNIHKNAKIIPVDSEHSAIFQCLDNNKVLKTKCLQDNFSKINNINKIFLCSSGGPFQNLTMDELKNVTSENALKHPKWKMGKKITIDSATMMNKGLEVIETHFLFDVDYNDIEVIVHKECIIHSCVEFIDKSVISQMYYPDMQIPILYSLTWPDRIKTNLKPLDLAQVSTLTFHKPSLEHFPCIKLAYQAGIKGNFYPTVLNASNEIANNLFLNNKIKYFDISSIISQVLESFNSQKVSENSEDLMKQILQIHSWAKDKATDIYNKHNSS

[4] = tested on: P. falciparum had1 mutant strain; assay type: cell-based; details: in words
[5] = Table 6, growth inhibition, read-out: P.f. IC50
[6] = minimal media (GAST-Fe), read-out: Mtb MIC99 Gast/Fe
[7] = rich media (7H9), read-out: Mtb MIC99 7H9
[8] = Table 4, growth inhibition, read-out: Pf IC50
[9] = Table 3, diethyl phosphonate analogs, read-out: P.f. IC50
[10] = Table 3, diethyl phosphonate analogs

Question: Which results are given for `CCOP(=O)(/C=C/CN(O)C(=O)c1ccccc1)OCC` [Compound 31a, Diethyl [(1E)-3-(N-hydroxy-1-phenylformamido)prop-1-en-1-yl]phosphonate]?
Answer: IC50 [1, 5]: > 100 µg/mL; MIC99 [2, 6]: > 100 µg/mL; MIC99 [2, 7]: > 100 µg/mL

Question: How did the IC50 [3] turn out when `COC(=O)N(O)C/C=C/P(=O)(O)O` [Compound 12c, Diammonium [(1E)-3-[hydroxy(methoxycarbonyl)amino]prop-1-en-1-yl]phosphonate] was run?
Answer: The IC50 was 14.5 µM.

Question: And the IC50 ([1]; read-out: Pf IC50)?
Answer: Its IC50 is 28.6 µM.

Question: How did the IC50 [1, 8] turn out when `COC(=O)N(O)C/C=C/P(=O)(OCOC(=O)C(C)(C)C)OCOC(=O)C(C)(C)C` [Compound 18c, [({[(2,2-dimethylpropanoyl)oxy]methoxy}[(1E)-3-[hydroxy(methoxycarbonyl)amino]prop-1-en-1-yl]phosphoryl)oxy]methyl 2,2-dimethylpropanoate] was run?
Answer: Its IC50 is 23.7 µM.

Question: For `CC(=O)N(C/C=C/P(=O)([O-])O)OCc1ccc(C(C)C)cc1.[Na+]` [Compound 16e, Sodium hydrogen [(1E)-3-(N-{[4-(propan-2-yl)phenyl]methoxy}acetamido)prop-1-en-1-yl]phosphonate], which IC50 [3] is on record?
Answer: The IC50 was 2.11 µM.

Question: What about the IC50 [1, 8] of the same compound?
Answer: Its IC50 is 1.1 µM.

Question: What about the “resistance of had1 parasites compared with wild-type” value [4] of the same compound?
Answer: Its value is “more resistant”.

Question: `CC(=O)N(C/C=C/P(=O)(OCOC(=O)C(C)(C)C)OCOC(=O)C(C)(C)C)OCc1ccc(C(C)C)cc1` [Compound 19e, [({[(2,2-dimethylpropanoyl)oxy]methoxy}[(1E)-3-(N-{[4-(propan-2-yl)phenyl]methoxy}acetamido)prop-1-en-1-yl]phosphoryl)oxy]methyl 2,2-dimethylpropanoate] was tested. Which IC50 [1, 8] did it give?
Answer: Its IC50 is 55.1 µM.

Question: `CC(=O)N(C/C=C/P(=O)([O-])O)OCc1ccc2ccccc2c1.[Na+]` [Compound 16f, Sodium hydrogen [(1E)-3-{N-[(naphthalen-2-yl)methoxy]acetamido}prop-1-en-1-yl]phosphonate] was tested. Which “Pf DXR (% Residue)” value [3] did it give?
Answer: The value was “(25) %”.

Question: What about the IC50 [1, 8] of the same compound?
Answer: Its IC50 is 26 µM.

Question: How did the IC50 [1, 5] turn out when `CCOP(=O)(/C=C/CN(O)C(=O)Cc1ccccc1)OCC` [Compound 31b, Diethyl [(1E)-3-(N-hydroxy-2-phenylacetamido)prop-1-en-1-yl]phosphonate] was run?
Answer: The IC50 was 110 µg/mL.

Question: And the MIC99 [2, 7]?
Answer: Its MIC99 is greater than 100 µg/mL.

Question: With `CCOP(=O)(/C=C/CN(OCc1ccc(C(C)C)cc1)C(C)=O)OCC` [Compound 15e, Diethyl [(1E)-3-(N-{[4-(propan-2-yl)phenyl]methoxy}acetamido)prop-1-en-1-yl]phosphonate] as the compound, how does the IC50 [1, 9] read?
Answer: The IC50 was 21.1 µg/mL.

Question: With `CC(=O)N(C/C=C/P(=O)(O)O)OC(C)c1ccccc1` (stereo not drawn) [Compound 16d, Sodium hydrogen [(1E)-3-[N-(1-phenylethoxy)acetamido]prop-1-en-1-yl]phosphonate] as the compound, how does the IC50 [3] read?
Answer: Its IC50 is 2.54 µM.

Question: And the IC50 [1, 8]?
Answer: The IC50 was 1.2 µM.

Question: For `CCOP(=O)(/C=C/CN(O)C(=O)CCCc1ccccc1)OCC` [Compound 31d, Diethyl [(1E)-3-(N-hydroxy-4-phenylbutanamido)prop-1-en-1-yl]phosphonate], which IC50 [1, 5] is on record?
Answer: The IC50 was 11.1 µg/mL.

Question: What about the MIC99 [2, 6] of the same compound?
Answer: Its MIC99 is greater than 100 µg/mL.

Question: What about the MIC99 [2, 7] of the same compound?
Answer: Its MIC99 is greater than 100 µg/mL.

Question: `CCOP(=O)(/C=C/CN(O)C=O)OCC` [Compound 11a, Diethyl [(1E)-3-(N-hydroxyformamido)prop-1-en-1-yl]phosphonate] was tested. Which “P.f. IC50” value [1, 10] did it give?
Answer: Its value is greater than 100 µg/mL.

Question: Which “P.f. IC50” value [1, 10] does the source give for `CCOP(=O)(/C=C/CN(O)C(=O)C(F)(F)F)OCC` [Compound 11b, Diethyl [(1E)-3-(2,2,2-trifluoro-N-hydroxyacetamido)prop-1-en-1-yl]phosphonate] here?
Answer: The value was greater than 100 µg/mL.

Question: For `CC(=O)N(C/C=C/P(=O)(OCOC(=O)C(C)(C)C)OCOC(=O)C(C)(C)C)OCc1ccc(-c2ccccc2)cc1` [Compound 19g, [({[(2,2-dimethylpropanoyl)oxy]methoxy}[(1E)-3-{N-[(4-phenylphenyl)methoxy]acetamido}prop-1-en-1-yl]phosphoryl)oxy]methyl 2,2-dimethylpropanoate], which IC50 [1, 8] is on record?
Answer: Its IC50 is 43.2 µM.

Question: `CC(C)(C)C(=O)OCOP(=O)(/C=C/CN(O)C(=O)Cc1ccccc1)OCOC(=O)C(C)(C)C` [Compound 33b, [({[(2,2-dimethylpropanoyl)oxy]methoxy}[(1E)-3-(N-hydroxy-2-phenylacetamido)prop-1-en-1-yl]phosphoryl)oxy]methyl 2,2-dimethylpropanoate] was tested. Which IC50 [1, 5] did it give?
Answer: Its IC50 is 0.152 µg/mL.

Question: And the MIC99 [2, 6]?
Answer: The MIC99 was 74 µg/mL (≈ 148 µM).

Question: And the MIC99 [2, 7]?
Answer: The MIC99 was 100 µg/mL (≈ 200 µM).

Question: How did the IC50 [1, 5] turn out when `CCOP(=O)(/C=C/CN(O)C(=O)CCc1ccccc1)OCC` [Compound 31c, Diethyl [(1E)-3-(N-hydroxy-3-phenylpropanamido)prop-1-en-1-yl]phosphonate] was run?
Answer: Its IC50 is greater than 100 µg/mL.

Question: What about the MIC99 [2, 6] of the same compound?
Answer: The MIC99 was greater than 100 µg/mL.

Question: What about the MIC99 [2, 7] of the same compound?
Answer: The MIC99 was greater than 100 µg/mL.

Question: For `CCOP(=O)(/C=C/CN(O)C(=O)OC)OCC` [Compound 11c, Methyl N-[(2E)-3-(diethoxyphosphoryl)prop-2-en-1-yl]-N-hydroxycarbamate], which “P.f. IC50” value [1, 10] is on record?
Answer: Its value is greater than 100 µg/mL.

Question: For `CCOP(=O)(/C=C/CN(OCc1ccc2ccccc2c1)C(C)=O)OCC` [Compound 15f, Diethyl [(1E)-3-{N-[(naphthalen-2-yl)methoxy]acetamido}prop-1-en-1-yl]phosphonate], which IC50 [1, 9] is on record?
Answer: Its IC50 is 29.6 µg/mL.

Question: With `CC(=O)N(C/C=C/P(=O)(OCOC(=O)C(C)(C)C)OCOC(=O)C(C)(C)C)OCc1ccc2ccccc2c1` [Compound 19f, [({[(2,2-dimethylpropanoyl)oxy]methoxy}[(1E)-3-{N-[(naphthalen-2-yl)methoxy]acetamido}prop-1-en-1-yl]phosphoryl)oxy]methyl 2,2-dimethylpropanoate] as the compound, how does the IC50 [1, 8] read?
Answer: The IC50 was 49.9 µM.

Question: `CCOP(=O)(/C=C/CN(OC(C)c1ccccc1)C(C)=O)OCC` (stereo not drawn) [Compound 15d, Diethyl [(1E)-3-[N-(1-phenylethoxy)acetamido]prop-1-en-1-yl]phosphonate] was tested. Which IC50 [1, 9] did it give?
Answer: The IC50 was 23.5 µg/mL.

Question: `CC(C)(C)C(=O)OCOP(=O)(/C=C/CN(O)C(=O)C(F)(F)F)OCOC(=O)C(C)(C)C` [Compound 18b, [({[(2,2-dimethylpropanoyl)oxy]methoxy}[(1E)-3-(2,2,2-trifluoro-N-hydroxyacetamido)prop-1-en-1-yl]phosphoryl)oxy]methyl 2,2-dimethylpropanoate] was tested. Which IC50 [1, 8] did it give?
Answer: Its IC50 is 14.2 µM.

Question: Which IC50 [3] does the source give for `CC(=O)N(C/C=C/P(=O)(O)O)OCc1ccc(-c2ccccc2)cc1` [Compound 16g, Sodium hydrogen [(1E)-3-{N-[(4-phenylphenyl)methoxy]acetamido}prop-1-en-1-yl]phosphonate] here?
Answer: Its IC50 is 4.53 µM.

Question: And the IC50 [1, 8]?
Answer: The IC50 was 2.3 µM.

Question: With `CC(C)(C)C(=O)OCOP(=O)(/C=C/CN(O)C(=O)CCCc1ccccc1)OCOC(=O)C(C)(C)C` [Compound 33d, [({[(2,2-dimethylpropanoyl)oxy]methoxy}[(1E)-3-(N-hydroxy-4-phenylbutanamido)prop-1-en-1-yl]phosphoryl)oxy]methyl 2,2-dimethylpropanoate] as the compound, how does the IC50 [1, 5] read?
Answer: Its IC50 is 2.4 µg/mL.

Question: What about the MIC99 [2, 6] of the same compound?
Answer: Its MIC99 is 37 µg/mL (≈ 70.1 µM).

Question: What about the MIC99 [2, 7] of the same compound?
Answer: The MIC99 was greater than 100 µg/mL.

Question: With `O=C(N(O)C/C=C/P(=O)([O-])O)C(F)(F)F.[Na+]` [Compound 12b, Sodium hydrogen [(1E)-3-(2,2,2-trifluoro-N-hydroxyacetamido)prop-1-en-1-yl]phosphonate] as the compound, how does the “Pf DXR (% Residue)” value [3] read?
Answer: The value was “(36.96) %”.

Question: And the IC50 [1, 8]?
Answer: Its IC50 is 113 µM.

Question: `CCOP(=O)(/C=C/CN(OCc1ccc(-c2ccccc2)cc1)C(C)=O)OCC` [Compound 15g, Diethyl [(1E)-3-{N-[(4-phenylphenyl)methoxy]acetamido}prop-1-en-1-yl]phosphonate] was tested. Which IC50 [1, 9] did it give?
Answer: The IC50 was 13.7 µg/mL.
